Measured values as given in patent US6613572B2, “Agent for expression of long-term potentiation of synaptic transmission comprising compound having brain somatostatin activation property” (priority 1999, dated 2003).

Assays:
[1] = tested on: voltage-dependent calcium channel of hippocampus pyramidal cell; test: Effect of somatostatin and compound 1 on voltage-dependent Ca2+ current of rat hippocampus pyramidal cell; format: cell-based; details: compound 1 10^-7 M plus somatostatin 10^-7 M
Experimental: Hippocampal slices were prepared from the brains of 5- to 14-day-old male Wistar rats and the nerve cells were quickly isolated by trypsin enzyme treatment method. According to the whole cell patch-clamp method, the membrane potential of hippocampus pyramidal cell was fixed at −80 mV and the membrane potential-dependent […] current (Ica) was measured in Cs^+ electrode inner solution and Ba^2+ bath outer solution. The resistance of the electrode was 2-4 MΩ. Compound 1 was added to bath outer solution concentrations of 0.01 μM, 0.1 μM and 1.0 μM, respectively, and perfused with the bath outer solution. Nothing was added to the bath outer solution for the control group. The maximal value of the current (peak amplitude) was measured, and calculated as the variation (%) relative to the value before addition of compound 1. Each value (%) was expressed by mean±S.E.M. The number of measurements was 7. The property of compound 1 was evaluated by Dunnett's multiple comparison test relative to the control group. […]

rat hippocampal slice = test: Somatostatin release from rat hippocampal slice upon high K+ (50 mM) stimulation, radioimmunoassay; format: cell-based; details: property significant at 10^-7 M and 10^-6 M vs control (Dunnett)
Experimental: Rat hippocampal slices (thickness 350 μm, round slice) were prepared by a standard method. Twenty rat hippocampal slices were placed in a perfusion chamber, incubated at 37° C. and perfused by a batch method while exchanging the incubation buffer every 10 minutes. The incubation buffer used had the composition as noted below. A mixed gas of oxygen (95%) and carbon dioxide (5%) was used to saturate the buffer. Composition of incubation buffer: NaCl, 124 mM; KCl, 5 mM; KH2PO4, 1.24 mM; MgSO4, 1.3 mM; CaCl2, 2.4 mM; NaHCO3, 26 mM; D-glucose, 10 mM
Perfusion for 150 minutes gave fractions 1-15. To fraction 9 was applied a high K^+ (50 mM) stimulation. Compound 1 was added to fractions 7-15 to the concentration of 10^−9 M, 10^−7 M, […], 10^−6 M, respectively. […] The respective fractions thus obtained were concentrated by lyophilization and somatostatin in the perfusate was quantified by radioimmunoassay (RIA). After the completion of the experiment, somatostatin remaining in the slices was extracted by a conventional method and quantified by radioimmunoassay. The somatostatin amount released by high K^+ (50 mM) stimulation was calculated and the amount of somatostatin released due to the property of compound 1 was measured.
Somatostatin release (%) by compound 1 at each concentration was calculated as in the following. […] The number of the test samples measured was 10 or 11. […]

[2] = tested on: voltage-dependent calcium channel of hippocampus pyramidal cells; test: Voltage-dependent Ca2+ current of rat hippocampus pyramidal cell, whole cell patch-clamp; format: cell-based
Experimental: Hippocampal slices were prepared from the brains of 5- to 14-day-old male Wistar rats and the nerve cells were quickly isolated by trypsin enzyme treatment method. According to the whole cell patch-clamp method, the membrane potential of hippocampus pyramidal cell was fixed at −80 mV and the membrane potential-dependent […] current (Ica) was measured in Cs^+ electrode inner solution and Ba^2+ bath outer solution. The resistance of the electrode was 2-4 MΩ. Compound 1 was added to bath outer solution concentrations of 0.01 μM, 0.1 μM and 1.0 μM, respectively, and perfused with the bath outer solution. Nothing was added to the bath outer solution for the control group. The maximal value of the current (peak amplitude) was measured, and calculated as the variation (%) relative to the value before addition of compound 1. Each value (%) was expressed by mean±S.E.M. The number of measurements was 7. The property of compound 1 was evaluated by Dunnett's multiple comparison test relative to the control group.

[3] = tested on: mossy fiber-CA3 field pyramidal cell of hippocampal slice; test: LTP in mossy fiber-CA3 field pyramidal cell of hippocampal slice, population spikes after tetanic stimulation; format: cell-based, guinea pig
Experimental: Slices (thickness 500 μm, round slice) were prepared from hippocampus removed from male Hartley guinea pigs (body weight 220-350 g) and population spikes were extracellularly recorded. The hippocampal slices were perfused with an artificial cerebrospinal fluid (33-34° C., composition: NaCl, 124 mM; KCl, 5 mM; KH2PO4, 1.24 mM; MgSO4, 1.3 mM; CaCl2, 2.4 mM; NaHCO3, 26 mM; D-glucose, 10 mM) saturated with a mixed gas of oxygen (95%) and carbon dioxide (5%) at flow rate of 1.8-2.0 ml/min. Mossy fiber was stimulated with a stimulating electrode at a voltage of not more than 10 V, frequency of 0.2 Hz and the population spikes in the CA3 field pyramidal cell layer was recorded every 5 minutes. When the population spikes to be recorded were stabilized, tetanic stimulation for induction of LTP was applied. The tetanic stimulation includes stimulation at the same voltage of not more than 10 V, as when the stimulation was applied at a frequency of 0.2 Hz, but upon increase of the frequency to 33 Hz for 5 seconds. The height of from negative peak to the next positive peak of the obtained population spikes after stimulation was measured and taken as an amplitude (population spike amplitude; PSA). The degree of LTP was expressed by a potential variation (%) by the increase in the amplitude of population spikes after tetanic stimulation relative to the average of 4 measurements of the amplitudes of population spikes obtained before tetanic stimulation. Each value was expressed by mean±S.E.M (the number of slices tested was 3 to 8). As the index of the property of a drug, the area (%·min) between the graph from 12 minutes to 62 minutes after tetanic stimulation and the line where the potential variation is 0%, in the time lapse graph of potential variation, was calculated and taken as the magnitude of LTP. Compound 1 was dissolved in and diluted with distilled water and added to perfusate to the concentration of 10^−9 M, 10^−8 M, 10^−7 M and 10^−6 M, respectively, and applied to a hippocmpal slice for […] from 2 minutes before the tetanic stimulation to 4 minutes thereafter. Nothing was added to perfusate for control group.
The property of compound 1 relative to the magnitude of LTP was tested by one-way analysis of variance and Dunnett's multiple comparison test.

CC(=O)N1CCN(NC(=O)c2ccc(F)cc2)CC1.O [Compound 1, N-(4-acetyl-1-piperazinyl)-p-fluorobenzamide monohydrate]
suppressive property of somatostatin on calcium current in the presence of compound 1 [1]: completely released
somatostatin release (%) (rat hippocampal slice): promoted somatostatin release
membrane potential-dependent calcium current (variation of peak amplitude) ([2]; 0.01 μM, 0.1 μM and 1.0 μM, compared to control group, holding -80 mV): significantly promoted
shape of dose dependency of the calcium current promotion ([2]; 0.01 to 1.0 μM): bell-shape dose dependency
potential variation after tetanic stimulation (magnitude of LTP, 12 to 62 min) ([3]; at 10^-7 M and 10^-6 M): increased potential variation
response of base before tetanic stimulation (potential variation) ([3]; before tetanic stimulation, compound applied to slice in perfusate): no significant influence
LTP enhancing property in hippocampal slice from guinea pig treated with cysteamine ([3]; cysteamine 200 mg/kg, compound 1 at 10^-7 M): did not show LTP enhancing property
concentration at which the action on LTP was maximal ([3]; tested at 10^-9 to 10^-6 M): 10^−7 M
